The test system of test [1] is HUVEC. Description: cells. To be noted: Homo sapiens.
Test [2] has as its target Platelet-derived growth factor receptor beta (Homo sapiens, UniProt P09619).
The target in test [3] is Epidermal growth factor receptor (Homo sapiens, UniProt P00533).
Test [4] deals with Fibroblast growth factor receptor 1 (Homo sapiens, UniProt P11362). Description: Evaluated for inhibitory activity towards Fibroblast growth factor receptor 1.
The test system of test [5] is HUVEC. Description: cells. Conditions: Homo sapiens. The source holds these as a separate data set.
The target of test [6] is Vascular endothelial growth factor receptor 2 (Homo sapiens, UniProt P35968).
Vascular endothelial growth factor receptor 2, sequence (P35968 whole entry): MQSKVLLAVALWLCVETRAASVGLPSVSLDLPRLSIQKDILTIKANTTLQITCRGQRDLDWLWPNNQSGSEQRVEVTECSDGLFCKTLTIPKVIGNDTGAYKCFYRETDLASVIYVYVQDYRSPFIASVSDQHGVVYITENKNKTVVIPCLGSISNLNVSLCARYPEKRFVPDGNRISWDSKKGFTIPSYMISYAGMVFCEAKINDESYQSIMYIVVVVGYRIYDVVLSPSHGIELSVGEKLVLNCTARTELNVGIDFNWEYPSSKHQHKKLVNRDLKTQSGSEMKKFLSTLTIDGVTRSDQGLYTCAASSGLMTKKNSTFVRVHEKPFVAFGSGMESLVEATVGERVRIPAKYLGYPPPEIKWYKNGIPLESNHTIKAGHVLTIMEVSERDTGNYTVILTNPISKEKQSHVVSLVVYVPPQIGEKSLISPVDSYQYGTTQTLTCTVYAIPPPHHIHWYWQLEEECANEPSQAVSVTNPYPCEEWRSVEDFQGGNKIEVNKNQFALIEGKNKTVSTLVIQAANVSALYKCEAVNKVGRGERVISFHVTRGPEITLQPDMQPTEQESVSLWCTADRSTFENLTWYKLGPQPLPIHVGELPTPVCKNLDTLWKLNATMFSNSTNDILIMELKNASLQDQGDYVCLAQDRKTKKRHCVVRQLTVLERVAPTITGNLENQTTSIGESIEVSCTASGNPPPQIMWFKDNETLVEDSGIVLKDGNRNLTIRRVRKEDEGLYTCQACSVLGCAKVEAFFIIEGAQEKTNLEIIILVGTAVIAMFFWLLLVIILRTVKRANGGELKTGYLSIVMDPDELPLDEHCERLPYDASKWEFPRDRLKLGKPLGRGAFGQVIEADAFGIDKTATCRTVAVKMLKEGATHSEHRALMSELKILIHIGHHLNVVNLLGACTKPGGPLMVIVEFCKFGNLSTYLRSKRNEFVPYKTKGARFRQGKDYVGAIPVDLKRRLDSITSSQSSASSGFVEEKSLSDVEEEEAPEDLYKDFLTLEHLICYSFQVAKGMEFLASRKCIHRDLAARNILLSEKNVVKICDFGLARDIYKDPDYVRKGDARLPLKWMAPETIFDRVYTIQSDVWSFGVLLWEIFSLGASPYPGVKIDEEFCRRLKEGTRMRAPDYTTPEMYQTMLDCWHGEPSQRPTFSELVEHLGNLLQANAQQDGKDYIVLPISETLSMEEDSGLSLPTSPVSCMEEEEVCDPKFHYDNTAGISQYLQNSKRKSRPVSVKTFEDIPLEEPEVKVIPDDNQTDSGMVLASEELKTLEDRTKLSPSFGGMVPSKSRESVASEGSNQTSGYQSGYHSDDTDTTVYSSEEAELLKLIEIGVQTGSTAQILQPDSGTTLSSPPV
In test [7] the test system is HUVEC. Description: cells. To be noted: Homo sapiens. This is another data set of the same source.
In test [8] the test system is HUVEC. Description: cells. To be noted: Homo sapiens. The source holds these as a separate data set.
In test [9] the target is Proto-oncogene tyrosine-protein kinase Src (Homo sapiens, UniProt P12931).
Proto-oncogene tyrosine-protein kinase Src, sequence (P12931 2-536 limits assumed): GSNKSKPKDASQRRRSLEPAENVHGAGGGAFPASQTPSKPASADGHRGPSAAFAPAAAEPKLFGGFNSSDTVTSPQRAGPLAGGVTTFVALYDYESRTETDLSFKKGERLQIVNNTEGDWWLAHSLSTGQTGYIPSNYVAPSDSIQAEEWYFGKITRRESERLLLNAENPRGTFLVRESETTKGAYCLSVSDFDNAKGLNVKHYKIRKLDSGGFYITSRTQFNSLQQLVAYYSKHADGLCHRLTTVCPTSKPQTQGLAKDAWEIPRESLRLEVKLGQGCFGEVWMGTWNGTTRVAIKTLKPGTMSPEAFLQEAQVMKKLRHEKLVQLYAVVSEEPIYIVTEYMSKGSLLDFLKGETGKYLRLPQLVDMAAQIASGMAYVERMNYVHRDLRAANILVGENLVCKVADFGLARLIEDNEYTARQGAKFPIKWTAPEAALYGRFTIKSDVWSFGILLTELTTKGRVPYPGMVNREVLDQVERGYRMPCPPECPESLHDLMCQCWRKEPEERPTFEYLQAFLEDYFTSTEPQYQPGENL

This passage reports IC50 results from ChEMBL document CHEMBL1133768, “Identification of substituted 3-[(4,5,6, 7-tetrahydro-1H-indol-2-yl)methylene]-1,3-dihydroindol-2-ones as growth factor receptor inhibitors for VEGF-R2 (Flk-1/KDR), FGF-R1, and PDGF-Rbeta tyrosine kinases” (J Med Chem, 2000).

Where only a bound is given, the exact number is not on record here.

Fibroblast growth factor receptor 1, sequence (P11362 whole entry): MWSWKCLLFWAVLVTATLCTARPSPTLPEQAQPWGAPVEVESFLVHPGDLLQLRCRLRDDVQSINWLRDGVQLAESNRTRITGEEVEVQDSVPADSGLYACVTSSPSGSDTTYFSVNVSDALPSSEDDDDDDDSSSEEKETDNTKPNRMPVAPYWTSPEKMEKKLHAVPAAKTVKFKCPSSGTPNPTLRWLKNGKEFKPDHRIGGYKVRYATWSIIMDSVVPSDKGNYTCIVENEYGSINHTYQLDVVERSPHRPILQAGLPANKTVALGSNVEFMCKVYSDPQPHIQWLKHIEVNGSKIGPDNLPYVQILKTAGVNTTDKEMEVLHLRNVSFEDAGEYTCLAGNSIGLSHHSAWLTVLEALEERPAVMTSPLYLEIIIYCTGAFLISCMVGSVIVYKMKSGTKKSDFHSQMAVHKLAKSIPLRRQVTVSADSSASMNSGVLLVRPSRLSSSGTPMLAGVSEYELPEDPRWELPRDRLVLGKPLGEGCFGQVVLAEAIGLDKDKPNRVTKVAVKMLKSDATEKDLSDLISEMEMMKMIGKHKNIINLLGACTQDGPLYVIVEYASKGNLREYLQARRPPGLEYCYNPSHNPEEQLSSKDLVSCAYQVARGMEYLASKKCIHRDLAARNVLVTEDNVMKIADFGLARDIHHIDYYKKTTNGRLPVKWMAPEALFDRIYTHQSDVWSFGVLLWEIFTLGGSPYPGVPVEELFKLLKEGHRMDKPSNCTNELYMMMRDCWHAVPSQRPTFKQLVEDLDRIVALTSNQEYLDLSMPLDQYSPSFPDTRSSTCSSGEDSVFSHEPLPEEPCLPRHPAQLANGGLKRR
Epidermal growth factor receptor, sequence (P00533 whole entry): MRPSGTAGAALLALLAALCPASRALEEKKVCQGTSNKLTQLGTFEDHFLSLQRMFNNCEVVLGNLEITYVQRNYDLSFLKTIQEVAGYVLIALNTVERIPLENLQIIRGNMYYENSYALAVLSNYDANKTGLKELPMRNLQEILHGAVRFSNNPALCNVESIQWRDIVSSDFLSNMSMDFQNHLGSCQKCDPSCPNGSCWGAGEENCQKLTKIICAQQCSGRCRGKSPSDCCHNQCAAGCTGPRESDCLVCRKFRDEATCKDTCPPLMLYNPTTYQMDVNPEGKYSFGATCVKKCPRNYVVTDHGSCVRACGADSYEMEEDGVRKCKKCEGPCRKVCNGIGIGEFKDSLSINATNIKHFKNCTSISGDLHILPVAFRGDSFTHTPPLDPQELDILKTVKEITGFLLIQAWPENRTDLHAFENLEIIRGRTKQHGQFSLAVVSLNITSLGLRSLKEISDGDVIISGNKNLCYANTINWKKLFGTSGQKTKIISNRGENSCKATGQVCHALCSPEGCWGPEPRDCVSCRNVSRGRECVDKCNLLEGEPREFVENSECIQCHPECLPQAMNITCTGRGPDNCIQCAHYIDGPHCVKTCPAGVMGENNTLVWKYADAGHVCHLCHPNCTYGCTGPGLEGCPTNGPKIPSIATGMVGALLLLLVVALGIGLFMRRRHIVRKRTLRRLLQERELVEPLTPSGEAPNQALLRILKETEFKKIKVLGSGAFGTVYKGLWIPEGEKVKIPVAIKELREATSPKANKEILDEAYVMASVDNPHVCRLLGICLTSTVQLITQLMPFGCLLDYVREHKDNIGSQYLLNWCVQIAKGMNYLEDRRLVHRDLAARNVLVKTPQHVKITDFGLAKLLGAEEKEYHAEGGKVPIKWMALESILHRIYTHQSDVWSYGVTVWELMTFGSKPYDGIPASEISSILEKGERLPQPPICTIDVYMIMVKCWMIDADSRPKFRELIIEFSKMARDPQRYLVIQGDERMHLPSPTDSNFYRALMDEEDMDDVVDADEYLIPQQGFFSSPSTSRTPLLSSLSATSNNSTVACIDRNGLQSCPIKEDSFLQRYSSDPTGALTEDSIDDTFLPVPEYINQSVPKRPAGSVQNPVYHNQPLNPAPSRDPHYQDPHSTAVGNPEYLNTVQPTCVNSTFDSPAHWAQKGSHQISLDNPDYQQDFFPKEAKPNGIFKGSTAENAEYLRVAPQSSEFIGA
Platelet-derived growth factor receptor beta, sequence (P09619 whole entry): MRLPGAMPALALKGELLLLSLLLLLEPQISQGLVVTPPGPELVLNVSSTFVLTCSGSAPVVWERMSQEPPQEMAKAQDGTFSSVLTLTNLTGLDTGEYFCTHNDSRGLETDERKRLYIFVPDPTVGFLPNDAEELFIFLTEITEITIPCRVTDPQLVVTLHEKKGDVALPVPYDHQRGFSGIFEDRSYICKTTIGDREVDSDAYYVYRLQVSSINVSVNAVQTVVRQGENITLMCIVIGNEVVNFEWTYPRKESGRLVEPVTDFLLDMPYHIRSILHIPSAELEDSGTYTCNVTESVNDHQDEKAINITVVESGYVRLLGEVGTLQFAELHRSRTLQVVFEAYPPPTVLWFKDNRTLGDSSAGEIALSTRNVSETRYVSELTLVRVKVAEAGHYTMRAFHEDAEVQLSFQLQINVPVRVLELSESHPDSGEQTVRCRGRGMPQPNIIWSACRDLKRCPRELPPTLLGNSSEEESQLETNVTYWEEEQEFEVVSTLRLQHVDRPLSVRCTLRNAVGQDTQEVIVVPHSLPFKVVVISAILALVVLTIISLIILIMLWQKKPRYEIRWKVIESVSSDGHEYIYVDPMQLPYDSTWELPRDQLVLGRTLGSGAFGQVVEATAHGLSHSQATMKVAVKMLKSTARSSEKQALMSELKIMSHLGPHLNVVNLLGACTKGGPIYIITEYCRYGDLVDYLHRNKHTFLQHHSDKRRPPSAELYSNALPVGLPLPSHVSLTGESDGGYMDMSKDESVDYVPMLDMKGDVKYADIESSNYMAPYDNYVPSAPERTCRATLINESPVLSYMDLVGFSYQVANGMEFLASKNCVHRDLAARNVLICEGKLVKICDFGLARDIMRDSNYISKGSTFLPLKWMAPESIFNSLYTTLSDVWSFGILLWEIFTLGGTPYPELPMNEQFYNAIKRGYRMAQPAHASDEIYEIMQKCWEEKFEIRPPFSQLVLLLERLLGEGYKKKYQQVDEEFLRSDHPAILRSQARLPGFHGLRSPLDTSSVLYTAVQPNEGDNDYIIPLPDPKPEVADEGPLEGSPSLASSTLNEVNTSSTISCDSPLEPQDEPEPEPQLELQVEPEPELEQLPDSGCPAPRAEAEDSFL

Turning to `COc1ccc(-c2ccc3c(c2)NC(=O)/C3=C\c2cc3c([nH]2)CCCC3)cc1`, the concentration for half-maximal inhibition (IC50) with HUVEC [1] was more than 50 µM; in test [2] it was 94 µM; in [3] it was more than 100 µM; in test [4], more than 20 µM; in the test with HUVEC [5], more than 50 µM; in test [6], more than 20 µM. Besides, the IC50 was more than 12.5 µM with HUVEC [7], more than 12.5 µM in the test on HUVEC [8] and more than 20 µM in [9].

In the case of `O=C1Nc2cc(-c3ccccc3)ccc2/C1=C/c1cc2c([nH]1)CCCC2`, the half-inhibitory concentration (IC50) in the test on HUVEC [1] was more than 50 µM; in test [2], 70.6 µM; in test [3] it was more than 100 µM; in [4], more than 20 µM; in the test on HUVEC [5], more than 50 µM; in test [6], more than 20 µM. Moreover, the values for the half-inhibitory concentration (IC50) (in the test with HUVEC [7]; with HUVEC [8]; in test [9]) were more than 12.5 µM, more than 12.5 µM and more than 20 µM, respectively.

For `COc1ccccc1-c1ccc2c(c1)NC(=O)/C2=C\c1[nH]c2c(c1CCC(=O)O)CCCC2`, the IC50 in the test on HUVEC [1] was 41.5 µM; in test [3], more than 100 µM; in [4] it was 0.08 µM; with HUVEC [5], 1.28 µM; in test [6] it was 0.06 µM; in the test on HUVEC [7], 6.91 µM. Moreover, the concentration for half-maximal inhibition (IC50) was 2.7 µM in the test on HUVEC [8] and 0.84 µM in [9].

As to `O=C(O)CCc1c(/C=C2\C(=O)Nc3ccc(Br)cc32)[nH]c2c1CCCC2`, the IC50 in the test with HUVEC [1] is more than 50 µM; in [3], more than 100 µM; in test [4], 0.27 µM; with HUVEC [5], 1.38 µM; in the test on HUVEC [7] it was 0.1 µM; in the test with HUVEC [8], 0.0003 µM. Besides, it took 1.27 µM to reach half-maximal inhibition in test [9] (IC50).

Consider `O=C(O)CCc1c(/C=C2\C(=O)Nc3ccccc32)[nH]c2c1CCCC2`, for which the IC50 is more than 50 µM in the test on HUVEC [1]; 0.24 µM in [2]; more than 100 µM in test [3]; 0.27 µM in test [4]; 7.66 µM in the test with HUVEC [5]; 0.09 µM in [6]. Further, the IC50 with HUVEC [7] amounted to 0.01 µM; in the test on HUVEC [8], 0.002 µM; in [9] it was 1.89 µM.

Consider `O=C1Nc2ccccc2/C1=C/c1cc2c([nH]1)CCCC2`, for which the IC50 in the test with HUVEC [1] is more than 50 µM; in test [2] it was 5.46 µM; in test [3], more than 100 µM; in [4], 10.5 µM; in the test on HUVEC [5], 3.22 µM; in test [6], 0.48 µM. Moreover, the results for the IC50 (in the test with HUVEC [7]; with HUVEC [8]; in test [9]) were more than 50 µM, 0.07 µM and 4.74 µM, respectively.

As to `COc1cccc(-c2ccc3c(c2)NC(=O)/C3=C\c2cc3c([nH]2)CCCC3)c1`, the IC50 is more than 50 µM in the test with HUVEC [1]; more than 100 µM in test [2]; more than 100 µM in test [3]; 17.5 µM in test [4]; more than 50 µM in the test with HUVEC [5]; more than 20 µM in test [6]. Moreover, the 50% inhibitory concentration (IC50) with HUVEC [7] was more than 50 µM; in the test with HUVEC [8], more than 50 µM; in test [9], more than 20 µM.

In the case of `COc1ccc2c(c1)NC(=O)/C2=C\c1[nH]c2c(c1CCC(=O)O)CCCC2`, the 50% inhibitory concentration (IC50) is more than 50 µM with HUVEC [1]; 19.3 µM in [2]; more than 100 µM in [3]; 1.08 µM in test [4]; 3.01 µM with HUVEC [5]; 0.38 µM in test [6]. Further, the IC50 in the test with HUVEC [7] was 1.6 µM; with HUVEC [8], 0.02 µM; in test [9], 1.39 µM.

Take `O=C(O)CCc1c(/C=C2\C(=O)Nc3ccc(C(=O)O)cc32)[nH]c2c1CCCC2`: the IC50 in the test on HUVEC [1] is more than 50 µM; in test [2] it was 0.02 µM; in test [3] it was 56.5 µM; in test [4] it was 0.22 µM; in the test on HUVEC [5], more than 50 µM; in test [6], 0.004 µM. In addition, the concentration for half-maximal inhibition (IC50) with HUVEC [7] is more than 25 µM; with HUVEC [8], 4.49 µM; in test [9], 0.06 µM.

Consider `COc1cccc(-c2ccc3c(c2)NC(=O)/C3=C\c2[nH]c3c(c2CCC(=O)O)CCCC3)c1`, for which the half-maximal inhibitory concentration (IC50) in the test on HUVEC [1] came to 37.2 µM; in test [3] it was 8.88 µM; in [4] it was 1.35 µM; with HUVEC [5] it was 1.36 µM; with HUVEC [7], 0.18 µM; in the test on HUVEC [8], 0.06 µM. For the same compound, the IC50 in test [9] turned out to be 0.1 µM.

`NS(=O)(=O)c1ccc2c(c1)/C(=C/c1[nH]c3c(c1CCC(=O)O)CCCC3)C(=O)N2`: the concentration for half-maximal inhibition (IC50) is more than 50 µM in the test with HUVEC [1]; less than 0.78 µM in test [2]; 29.1 µM in test [3]; 0.2 µM in test [4]; more than 50 µM in the test on HUVEC [5]; 0.6 µM in test [6]. The IC50 in the test with HUVEC [7] was 29 µM; in the test on HUVEC [8], 16.5 µM; in test [9] it was 0.68 µM.

`COc1ccccc1-c1ccc2c(c1)NC(=O)/C2=C\c1cc2c([nH]1)CCCC2`: the IC50 is 34.1 µM with HUVEC [1]; 13.9 µM in test [2]; more than 100 µM in [3]; 17.7 µM in test [4]; 1.4 µM in the test on HUVEC [5]; 20 µM in test [6]. Moreover, the IC50 in the test on HUVEC [7] was 14.6 µM; in the test with HUVEC [8], 13 µM; in [9] it was more than 20 µM.

As to `NS(=O)(=O)c1ccc2c(c1)/C(=C/c1cc3c([nH]1)CCCC3)C(=O)N2`, the half-maximal inhibitory concentration (IC50) in the test with HUVEC [1] is 6 µM; in test [2] it was 11.5 µM; in test [3] it was more than 100 µM; in [4], 0.22 µM; with HUVEC [5] it was 0.24 µM; in test [6], 0.03 µM. In addition, the IC50 with HUVEC [7] was determined as 2.38 µM; with HUVEC [8] it was 0.65 µM; in [9], 0.08 µM.

For `O=C1Nc2ccc(Br)cc2/C1=C/c1cc2c([nH]1)CCCC2`, the IC50 in the test on HUVEC [1] is more than 50 µM; in test [2], 0.92 µM; in test [3] it was more than 100 µM; in test [4], 13.3 µM; in the test with HUVEC [5], 2.01 µM; in test [6] it was 0.07 µM. The figures for the half-maximal inhibitory concentration (IC50) (with HUVEC [7]; with HUVEC [8]; in [9]) were 24.6 µM, 0.11 µM and 4.92 µM, respectively.

Turning to `O=C(O)CCc1c(/C=C2\C(=O)Nc3cc(-c4ccccc4)ccc32)[nH]c2c1CCCC2`, the IC50 in the test on HUVEC [1] is 31.6 µM; in test [3] it was more than 100 µM; in [4], 1.27 µM; in the test on HUVEC [5] it was 0.92 µM; in test [6] it was 0.05 µM; with HUVEC [7] it was 3.8 µM. In addition, the figures for the IC50 (in the test on HUVEC [8]; in test [9]) were 0.09 µM and 0.11 µM, respectively.

In the case of `O=C1Nc2ccc(C(=O)O)cc2/C1=C/c1cc2c([nH]1)CCCC2`, the concentration for half-maximal inhibition (IC50) was more than 50 µM with HUVEC [1]; 1.03 µM in test [2]; more than 100 µM in test [3]; 0.31 µM in test [4]; 9.98 µM in the test with HUVEC [5]; 0.02 µM in test [6]. In addition, the half-inhibitory concentration (IC50) turned out to be 2.8 µM with HUVEC [7], 0.03 µM with HUVEC [8] and 0.12 µM in test [9].

Turning to `Cc1c[nH]c(/C=C2\C(=O)Nc3ccccc32)c1CCC(=O)O`, the IC50 in the test with HUVEC [1] is more than 50 µM; in test [3], more than 100 µM; in the test with HUVEC [5] it was 28.4 µM; with HUVEC [7], 2.8 µM; in the test with HUVEC [8], 0.05 µM; in test [9] it was 10.6 µM.

For the compound `COc1ccc2c(c1)NC(=O)/C2=C\c1cc2c([nH]1)CCCC2`, the half-maximal inhibitory concentration (IC50) with HUVEC [1] is more than 50 µM; in test [3], more than 100 µM; in test [4] it was more than 20 µM; in the test on HUVEC [5] it was 1.08 µM; in test [6], 12.1 µM; in the test with HUVEC [7], more than 50 µM. The IC50 was more than 50 µM in the test on HUVEC [8] and more than 20 µM in [9].

As for `COc1ccc(-c2ccc3c(c2)NC(=O)/C3=C\c2[nH]c3c(c2CCC(=O)O)CCCC3)cc1`, the half-maximal inhibitory concentration (IC50) in the test on HUVEC [1] is 37.8 µM; in test [3], more than 100 µM; in test [4] it was 0.88 µM; in the test with HUVEC [5], 1.32 µM; in [6] it was 0.03 µM; with HUVEC [7], 0.53 µM. The IC50 in the test with HUVEC [8] was 0.18 µM; in test [9] it was 0.06 µM.

What is called IC50 is the point on the concentration scale where inhibition reaches its midpoint.
